Measurements reported in patent publication US4638005A, “Monoquaternized pyrazinium compounds and their use as electron carriers in photosynthetic processes” (The Coca-Cola Company, priority 1983, dated 1987).

Assays:
nitrogenase [1] = target: T1, nitrogenase (Azotobacter vinelandii, UniProt P00459); experiment: Chloroplast-coupled reduction of acetylene to ethylene by nitrogenase (electron carrier bioassay of Benemann); format: biochemical; settings: for ACTIVITY RELATIVE TO FERREDOXIN (%) / ACTIVITY (nmoles C2 H4 /mg protein/min): Table I; for ACTIVITY RELATIVE TO FERREDOXIN (%): acetylene reduction to ethylene; for ACTIVITY (nmoles C2 H4 /mg protein/min): illuminated spinach chloroplasts, synthetic carriers 2 mM, clostridial ferredoxin 0.2 mM; for ETHYLENE FORMATION % Ferredoxin Activity: Table III ranking; for % FERREDOXIN ACTIVITY: Table IV, acetylene reduction
T1 construct: the nitrogenase sample was prepared from a culture of Azotobacter vinelandii; endogenous in cells; host or cells: Azotobacter vinelandii culture; French press lysate, 10,000 x g supernatant (crude)
T1 sequence (P00459 2-290 limits assumed): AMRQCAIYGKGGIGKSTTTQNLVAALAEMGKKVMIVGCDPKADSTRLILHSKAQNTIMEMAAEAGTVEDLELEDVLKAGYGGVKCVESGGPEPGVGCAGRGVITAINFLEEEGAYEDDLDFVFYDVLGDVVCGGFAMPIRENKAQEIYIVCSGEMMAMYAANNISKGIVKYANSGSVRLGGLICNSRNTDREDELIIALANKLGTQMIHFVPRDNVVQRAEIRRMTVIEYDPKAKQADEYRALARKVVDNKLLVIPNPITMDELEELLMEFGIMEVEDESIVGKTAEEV
Method: The activity of the pyrazinium compounds as electron carriers in an illuminated photocouple process using isolated chloroplasts and the reductive enzyme catalyst nitrogenease has been determined using the bioassay of Benemann, et al., Proc. Natl. Acad. Sci. USA, 64, 1079(1969). In this method, the carrier activity is measured as a function of nitrogenase reduction of acetylene to ethylene, the rate of production of ethylene being the direct measurement.
(§1) For the bioassay, the nitrogenase sample was prepared from a culture of Azotobacter vinelandii grown to a cell density of about 1 g/l. The cells harvested by centrifugation were broken in a French press, cell debris spun off at 10,000 XG for 1 hr., and the supernatant containing 40 mg/ml protein was used in the bioassay experiments. […] chloroplasts from spinach leaves as described by Benemann were also used. The synthetic carriers were tested in aqueous solutions at concentrations of 2 mM, while the standard, clostridial ferredoxin, was used in 0.2 mM aqueous solution. The concentrations of carriers in the assay mixtures were chosen so as to guarantee carrier saturation conditions. Thus, the observed differences in rates of ethylene production from the substrate acetylene were assigned directly to variations in the efficiency of electron transfer from the illuminated chloroplast to the nitrogenase. The results obtained for acetylene reduction (nitrogen fixation) using the pyrazinium compounds of Examples 1 through 42 are summarized in Table I and are expressed as nmoles of ethylene produced per mg protein per minute.

nitrogenase [2] = target: T1, nitrogenase; experiment: Chloroplast-coupled evolution of hydrogen by nitrogenase in the absence of substrate; format: biochemical; settings: Table II, hydrogen evolution; for ACTIVITY (nmoles H2 /mg protein/min): no nitrogen or acetylene, synthetic carriers 2 mM, ferredoxin 0.2 mM
Method: as §1
It has been recognized for sometime the connection existing between hydrogen metabolism and nitrogen fixation. […] When nitrogenase was purified extensively, as mentioned above, it became apparent that in addition to nitrogen, nitrogenase also catalyzed the reduction of protons. The evolution of hydrogen is particularly active in the absence of the normal substrates for nitrogenase (nitrogen, acetylene, cyanide, azide, etc.), and is dependent upon a strong reductant and adenosine triphosphate hydrolysis. Since hydrogen evolution is not inhibited by CO, but reduction of nitrogen and other substrates is, the reduction of protons presumably occurs at a site other than the site of nitrogen reduction, H. C. Winter, et. al., Ann Rev. Biochem, 45, 409 (1976). Accordingly, with the same bioassay system and with exclusion of nitrogen, and acetylene, the activity of the pyrazinium compounds to act as carriers for production of hydrogen has been determined.
The results of this study, which are summarized in Table II, indicate that the pyrazinium salts that mediate the reduction of acetylene with electrons from the photoexcited chloroplast, are also mediating the reduction of protons by the nitrogenase.

[3] = Polarographic half-wave potential (first wave reduction); format: physicochemical; settings: 0.1 M phosphate buffer pH 7.55, 25° C.
Description: Sci., 65, 1471(1976). Therefore, it was of interest to measure polarographically the half-wave potentials of the several pyrazinium salts under consideration, to determine the possible effect of structure upon their redox potentials.

[4] = cited from earlier work

| ACTIVITY RELATIVE TO FERREDOXIN (%) (nitrogenase [1]) | ACTIVITY (nmoles C2 H4 /mg protein/min) (nitrogenase [1]) | ETHYLENE FORMATION % Ferredoxin Activity (nitrogenase [1]) | % FERREDOXIN ACTIVITY (nitrogenase [1]) | ACTIVITY RELATIVE TO FERREDOXIN (%) (nitrogenase [2]) | ACTIVITY (nmoles H2 /mg protein/min) (nitrogenase [2]) | E1/2 vs. SCE (mV) [3] | Molecule | midpoint potential ([4]; natural electron carriers for the nitrogenase) | half-wave potential ([4]; pH 7.52) |
| --- | --- | --- | --- | --- | --- | --- | --- | --- | --- |
| 0% | 0.0 nmoles C2 H4 /mg protein/min | 0% | 0% | 0% | 0.0 nmoles H2 /mg protein/min | -390 mV | COC(=O)c1c[n+](C)ccn1 [Compound 4500] |  |  |
| 0% | 0.0 nmoles C2 H4 /mg protein/min | 0% | 0% | 0% | 0.0 nmoles H2 /mg protein/min | -479 mV | C[n+]1ccnc(C(N)=O)c1 [Compound 4600] |  |  |
| 0% | 0.0 nmoles C2 H4 /mg protein/min | 0% | 0% | 0% | 0.0 nmoles H2 /mg protein/min | -676 mV | CCCCc1c[n+](C)ccn1 [Compound 5000] |  |  |
| 0% | 0.0 nmoles C2 H4 /mg protein/min | 0% | 0% | 0% | 0.0 nmoles H2 /mg protein/min | -433 mV | C[n+]1ccnc2ccccc21 [Compound 5200] |  |  |

The next lines start with the molecule.

| Molecule | ACTIVITY RELATIVE TO FERREDOXIN (%) (nitrogenase [1]) | ACTIVITY (nmoles C2 H4 /mg protein/min) (nitrogenase [1]) | ETHYLENE FORMATION % Ferredoxin Activity (nitrogenase [1]) | % FERREDOXIN ACTIVITY (nitrogenase [1]) | ACTIVITY RELATIVE TO FERREDOXIN (%) (nitrogenase [2]) | ACTIVITY (nmoles H2 /mg protein/min) (nitrogenase [2]) | E1/2 vs. SCE (mV) [3] | midpoint potential ([4]; natural electron carriers for the nitrogenase) | half-wave potential ([4]; pH 7.52) |
| --- | --- | --- | --- | --- | --- | --- | --- | --- | --- |
| COC(=O)CCc1c[n+](C)ccn1.[I-] [Compound 3901, 1-methyl-3-(2-carbomethoxyethyl)pyrazinium iodide] | 22% | 3.0 nmoles C2 H4 /mg protein/min | 22% | 22% | 26% | 6.9 nmoles H2 /mg protein/min | -685 mV |  |  |
| C[n+]1ccnc(CCC(N)=O)c1 [Compound 4000, 1-Methyl-3-(2-carboxamidoethyl)pyrazinium iodide] | 28% | 3.8 nmoles C2 H4 /mg protein/min | 28% | 28% | 36% | 9.5 nmoles H2 /mg protein/min | -685 mV |  |  |
| C[n+]1ccnc(CC(C(O)CO)S(=O)(=O)[O-])c1 (centres unmarked) [Compound 4100] | 110% | 14.8 nmoles C2 H4 /mg protein/min | 110% | 110% | 73% | 19.4 nmoles H2 /mg protein/min | -720 mV |  |  |
| Cc1c[n+](C)ccn1 [Compound 4300] | 5% | 0.7 nmoles C2 H4 /mg protein/min | 5% | 5% | 14% | 3.7 nmoles H2 /mg protein/min | -696 mV |  |  |
| C[n+]1ccnc(C(=O)O)c1 [Compound 4400] | 0% | 0.0 nmoles C2 H4 /mg protein/min | 0% | 0% | 0% | 0.0 nmoles H2 /mg protein/min | -613 mV |  |  |
| C[n+]1ccnc(CS(C)(=O)=O)c1 [Compound 4700] | 5% | 0.7 nmoles C2 H4 /mg protein/min | 5% | 5% | 5% | 1.4 nmoles H2 /mg protein/min | -611 mV |  |  |
| CCc1c[n+](C)ccn1 [Compound 4900] | 2% | 0.3 nmoles C2 H4 /mg protein/min | 2% | 2% | 8% | 2.2 nmoles H2 /mg protein/min | -700 mV |  |  |
| Clostridial Ferredoxin: the standard, clostridial ferredoxin; natural protein electron carrier, used in 0.2 mM aqueous solution (AYKIADSCVSCGACASECPVNAISQGDSIFVIDADTCIDCGNCANVCPVGAPVQE; UniProt P00195 2-56, looked up) [reference compound] | 100% | 13.5 nmoles C2 H4 /mg protein/min | 100% | 100% | 100% | 26.7 nmoles H2 /mg protein/min | -570 mV | -570 mV | -570 mV |
